Results taken from article PMC6072100, “Exploring the links between peptoid antibacterial activity and toxicity” (MedChemComm, 2017).
Where “and” joins values, the source holds several entries; their conditions need not be identical. Equal values may be shown once. Read-outs that look alike come from different tables or passages of the source. Square brackets hold non-standard residues; d marks the D form. Peptide text beside a SMILES is read from it. Gly(N-(CH2)6NH2) = NCCCCCCNCC(=O)O; Gly(N-2-aminoethyl) = NCCNCC(=O)O; Nspe = C[C@H](NCC(=O)O)c1ccccc1; Nphe = O=C(O)CNCc1ccccc1; Nlys = NCCCCNCC(=O)O

Legend:
Assay type in all cases: cell-based
[1] = system: Pseudomonas aeruginosa PA01 (ATCC 15692)
Outline: (§1)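 Broth microdilution MIC in Iso-sensitest broth; inoculum adjusted to A650 0.07 (0.5 McFarland) then diluted ten-fold. Peptoids from DMSO stock at final 2–100 μM (2-fold series), 37 °C for 16 h with shaking; growth read by absorbance, triplicate, ampicillin and DMSO controls.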

[2] = system: Escherichia coli K-12 wild-type strain (W3110/ATCC27325); conditions: lowest concentration completely inhibiting growth, 37 °C, 16 h; range 2–100 μM
Outline: as §1

[3] = system: Staphylococcus aureus (3R7089 strain Oxford/ATCC9144)
Outline: as §1

[4] = system: Staphylococcus epidermidis (laboratory strain from clinical isolate); conditions: 16 h
Outline: as §1

[5] = lowest concentration completely inhibiting growth, 37 °C, 16 h, range 2–100 μM
[6] = lowest concentration completely inhibiting growth, 37 °C, range 2–100 μM
[7] = laboratory strain from clinical isolate

Row | SMILES | MIC P. aeruginosa [1, 5] | MIC E. coli [2] | MIC S. aureus [3, 5] | MIC S. epidermidis [4, 6] | MIC P. aeruginosa ([1]; ATCC 15692, 16 h) | MIC S. aureus ([3]; ATCC9144, 16 h) | MIC S. epidermidis [4, 7]
1 | C[C@@H](c1ccccc1)N(CC(N)=O)C(=O)CN(C(=O)CN(CCCCN)C(=O)CN(C(=O)CN(C(=O)CN(CCCCN)C(=O)CN(C(=O)CN(C(=O)CNCCCCN)[C@@H](C)c1ccccc1)[C@@H](C)c1ccccc1)[C@@H](C)c1ccccc1)[C@@H](C)c1ccccc1)[C@@H](C)c1ccccc1 [Peptoid 14, (NLysNspeNspe)3] (H-[Nlys][Nspe][Nspe][Nlys][Nspe][Nspe][Nlys][Nspe][Nspe]-NH2) | >100 µM | 13 µM | 2 µM | 2 µM | – | – | –
2 | NCCNCC(=O)N(CC(=O)N(CC(=O)N(CCN)CC(=O)N(CC(=O)N(CC(=O)N(CCN)CC(=O)N(CC(=O)N(CC(=O)N(CCN)CC(=O)N(CC(=O)N(CC(N)=O)Cc1ccccc1)Cc1ccccc1)Cc1ccccc1)Cc1ccccc1)Cc1ccccc1)Cc1ccccc1)Cc1ccccc1)Cc1ccccc1 [Peptoid 7, (NaeNpheNphe)4] (H-[Gly(N-2-aminoethyl)][Nphe][Nphe][Gly(N-2-aminoethyl)][Nphe][Nphe][Gly(N-2-aminoethyl)][Nphe][Nphe][Gly(N-2-aminoethyl)][Nphe][Nphe]-NH2) | 50 µM | 13 µM | 2 µM | 6 µM | – | – | –
3 | C[C@@H](c1ccccc1)N(CC(N)=O)C(=O)CN(C(=O)CN(CCN)C(=O)CN(C(=O)CN(C(=O)CN(CCN)C(=O)CN(C(=O)CN(C(=O)CNCCN)[C@@H](C)c1ccccc1)[C@@H](C)c1ccccc1)[C@@H](C)c1ccccc1)[C@@H](C)c1ccccc1)[C@@H](C)c1ccccc1 [Peptoid 17, (NaeNspeNspe)3] | 100 µM and > 100 µM | 25 µM | 2 µM | 13 µM | – | – | –
4 | NCCCCNCC(=O)N(CC(=O)N(CC(=O)N(CCCCN)CC(=O)N(CC(=O)N(CC(=O)N(CCCCN)CC(=O)N(CC(=O)N(CC(=O)N(CCCCN)CC(=O)N(CC(=O)N(CC(N)=O)Cc1ccccc1)Cc1ccccc1)Cc1ccccc1)Cc1ccccc1)Cc1ccccc1)Cc1ccccc1)Cc1ccccc1)Cc1ccccc1 [Peptoid 4, (NLysNpheNphe)4] (H-[Nlys][Nphe][Nphe][Nlys][Nphe][Nphe][Nlys][Nphe][Nphe][Nlys][Nphe][Nphe]-NH2) | 50 µM | 13 µM | 3 µM | 2 µM | – | – | –
5 | NCCCCCCNCC(=O)N(CC(=O)N(CC(=O)N(CCCCCCN)CC(=O)N(CC(=O)N(CC(N)=O)Cc1ccccc1)Cc1ccccc1)Cc1ccccc1)Cc1ccccc1 [Peptoid 3, (NahNpheNphe)2] (H-[Gly(N-(CH2)6NH2)][Nphe][Nphe][Gly(N-(CH2)6NH2)][Nphe][Nphe]-NH2) | – | >100 µM | – | – | >100 µM | >100 µM | >100 µM
6 | C[C@@H](c1ccccc1)N(CC(N)=O)C(=O)CN(C(=O)CN(CCCCN)C(=O)CN(Cc1ccc(F)cc1)C(=O)CN(Cc1ccc(F)cc1)C(=O)CN(CCCCN)C(=O)CN(C(=O)CN(C(=O)CN(CCCCN)C(=O)CN(Cc1ccc(F)cc1)C(=O)CN(Cc1ccc(F)cc1)C(=O)CNCCCCN)[C@@H](C)c1ccccc1)[C@@H](C)c1ccccc1)[C@@H](C)c1ccccc1 [Peptoid 28, [(NLysNpfbNpfb)(NLysNspeNspe)]2] | 50 µM | 6 µM | 2 µM | 1 µM | – | – | < 1 µM
